Data from PubChem BioAssay (NCI).
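A five-concentration, 48-hour dose response in 96-well plates underlies each endpoint, interpolated linearly between surrounding concentrations. The concentration for full growth arrest is given as TGI.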

Tests used:
Assay in all cases: NCI tumour cell line growth inhibition, 48 h
786-0 renal = test system: 786-0 renal
A498 renal = test system: A498 renal
A549 NSCLC = test system: A549 NSCLC
ACHN renal = test system: ACHN renal
BT-549 breast = test system: BT-549 breast
CAKI-1 renal = test system: CAKI-1 renal
CCRF-CEM leukemia = test system: CCRF-CEM leukemia
COLO 205 colon = test system: COLO 205 colon
DU-145 prostate = test system: DU-145 prostate
EKVX NSCLC = test system: EKVX NSCLC
HCC-2998 colon = test system: HCC-2998 colon
HCT-116 colon = test system: HCT-116 colon
HCT-15 colon = test system: HCT-15 colon
HOP-62 NSCLC = test system: HOP-62 NSCLC
HOP-92 NSCLC = test system: HOP-92 NSCLC
HS 578T breast = test system: HS 578T breast
HT29 colon = test system: HT29 colon
IGROV1 ovarian = test system: IGROV1 ovarian
K-562 leukemia = test system: K-562 leukemia
KM12 colon = test system: KM12 colon
LOX IMVI melanoma = test system: LOX IMVI melanoma
M14 melanoma = test system: M14 melanoma
MALME-3M melanoma = test system: MALME-3M melanoma
MCF7 breast = test system: MCF7 breast
MDA-MB-231 breast = test system: MDA-MB-231 breast
MDA-MB-435 = test system: MDA-MB-435
MDA-N = test system: MDA-N
MOLT-4 leukemia = test system: MOLT-4 leukemia
NCI-H226 lung = test system: NCI-H226 lung
NCI-H23 lung = test system: NCI-H23 lung
NCI-H460 lung = test system: NCI-H460 lung
NCI-H522 lung = test system: NCI-H522 lung
NCI/ADR-RES ovarian = test system: NCI/ADR-RES ovarian
OVCAR-3 ovarian = test system: OVCAR-3 ovarian
OVCAR-4 ovarian = test system: OVCAR-4 ovarian
OVCAR-5 ovarian = test system: OVCAR-5 ovarian
OVCAR-8 ovarian = test system: OVCAR-8 ovarian
PC-3 prostate = test system: PC-3 prostate
RPMI-8226 leukemia = test system: RPMI-8226 leukemia
RXF 393 renal = test system: RXF 393 renal
SF-268 CNS = test system: SF-268 CNS
SF-295 CNS = test system: SF-295 CNS
SK-MEL-2 melanoma = test system: SK-MEL-2 melanoma
SK-MEL-28 melanoma = test system: SK-MEL-28 melanoma
SK-MEL-5 melanoma = test system: SK-MEL-5 melanoma
SK-OV-3 ovarian = test system: SK-OV-3 ovarian
SN12C renal = test system: SN12C renal
SNB-19 CNS = test system: SNB-19 CNS
SNB-75 CNS = test system: SNB-75 CNS
SR leukemia = test system: SR leukemia
SW-620 colon = test system: SW-620 colon
T-47D breast = test system: T-47D breast
TK-10 renal = test system: TK-10 renal
U251 CNS = test system: U251 CNS
UACC-257 melanoma = test system: UACC-257 melanoma
UACC-62 melanoma = test system: UACC-62 melanoma
UO-31 renal = test system: UO-31 renal
SF-539 CNS = test system: SF-539 CNS
HL-60(TB) leukemia = test system: HL-60(TB) leukemia

## Cn1c(O)c(C2=Nc3ccccc3C2=O)c2ccccc21
786-0 renal
  TGI: > 100 µM
A498 renal
  TGI: > 100 µM
A549 NSCLC
  TGI: > 100 µM
ACHN renal
  TGI: > 100 µM
BT-549 breast
  TGI: > 100 µM
CAKI-1 renal
  TGI: > 100 µM
CCRF-CEM leukemia
  TGI: > 100 µM
COLO 205 colon
  TGI: > 100 µM
DU-145 prostate
  TGI: > 100 µM
EKVX NSCLC
  TGI: > 100 µM
HCC-2998 colon
  TGI: > 100 µM
HCT-116 colon
  TGI: > 100 µM
HCT-15 colon
  TGI: > 100 µM
HOP-62 NSCLC
  TGI: > 100 µM
HOP-92 NSCLC
  TGI: > 100 µM
HS 578T breast
  TGI: > 100 µM
HT29 colon
  TGI: > 100 µM
IGROV1 ovarian
  TGI: > 100 µM
K-562 leukemia
  TGI: > 100 µM
KM12 colon
  TGI: > 100 µM
LOX IMVI melanoma
  TGI: > 100 µM
M14 melanoma
  TGI: > 100 µM
MALME-3M melanoma
  TGI: > 100 µM
MCF7 breast
  TGI: > 100 µM
MDA-MB-231 breast
  TGI: > 100 µM
MDA-MB-435
  TGI: > 100 µM
MDA-N
  TGI: > 100 µM
MOLT-4 leukemia
  TGI: > 100 µM
NCI-H226 lung
  TGI: > 100 µM
NCI-H23 lung
  TGI: > 100 µM
NCI-H460 lung
  TGI: > 100 µM
NCI-H522 lung
  TGI: > 100 µM
NCI/ADR-RES ovarian
  TGI: > 100 µM
OVCAR-3 ovarian
  TGI: > 100 µM
OVCAR-4 ovarian
  TGI: > 100 µM
OVCAR-5 ovarian
  TGI: > 100 µM
OVCAR-8 ovarian
  TGI: > 100 µM
PC-3 prostate
  TGI: > 100 µM
RPMI-8226 leukemia
  TGI: > 100 µM
RXF 393 renal
  TGI: > 100 µM
SF-268 CNS
  TGI: > 100 µM
SF-295 CNS
  TGI: > 100 µM
SK-MEL-2 melanoma
  TGI: > 100 µM
SK-MEL-28 melanoma
  TGI: > 100 µM
SK-MEL-5 melanoma
  TGI: > 100 µM
SK-OV-3 ovarian
  TGI: > 100 µM
SN12C renal
  TGI: > 100 µM
SNB-19 CNS
  TGI: > 100 µM
SNB-75 CNS
  TGI: > 100 µM
SR leukemia
  TGI: > 100 µM
SW-620 colon
  TGI: > 100 µM
T-47D breast
  TGI: > 100 µM
TK-10 renal
  TGI: > 100 µM
U251 CNS
  TGI: > 100 µM
UACC-257 melanoma
  TGI: > 100 µM
UACC-62 melanoma
  TGI: > 100 µM
UO-31 renal
  TGI: > 100 µM

## COc1ccc2[nH]c(S(=O)(=O)N3CC(CCl)c4ccc(N)cc43)cc2c1 (configuration not stated)
786-0 renal
  TGI: 14.7 µM
A498 renal
  TGI: 17.6 µM
A549 NSCLC
  TGI: 36 µM
ACHN renal
  TGI: 49.5 µM
BT-549 breast
  TGI: 27.6 µM
CAKI-1 renal
  TGI: 19.9 µM
CCRF-CEM leukemia
  TGI: > 50.7 µM
COLO 205 colon
  TGI: 53.3 µM
DU-145 prostate
  TGI: > 37.4 µM
EKVX NSCLC
  TGI: 52.6 µM
HCC-2998 colon
  TGI: 14.9 µM
HCT-116 colon
  TGI: > 31.8 µM
HCT-15 colon
  TGI: 26.4 µM
HOP-62 NSCLC
  TGI: 28.6 µM
HOP-92 NSCLC
  TGI: 63.4 µM
HS 578T breast
  TGI: 16.5 µM
HT29 colon
  TGI: 4.69 µM
IGROV1 ovarian
  TGI: 24.2 µM
KM12 colon
  TGI: 3.86 µM
LOX IMVI melanoma
  TGI: 17.7 µM
M14 melanoma
  TGI: 16.6 µM
MALME-3M melanoma
  TGI: 27.6 µM
MCF7 breast
  TGI: > 100 µM
MDA-MB-231 breast
  TGI: 26.9 µM
MDA-MB-435
  TGI: 3.35 µM
MDA-N
  TGI: < 0.0189 µM
MOLT-4 leukemia
  TGI: 18.4 µM
NCI-H226 lung
  TGI: 20.1 µM
NCI-H460 lung
  TGI: 14.2 µM
NCI-H522 lung
  TGI: 10.1 µM
NCI/ADR-RES ovarian
  TGI: 18.6 µM
OVCAR-3 ovarian
  TGI: 25.8 µM
OVCAR-4 ovarian
  TGI: 35.3 µM
OVCAR-5 ovarian
  TGI: 35.2 µM
OVCAR-8 ovarian
  TGI: 19.4 µM
PC-3 prostate
  TGI: 16.6 µM
RPMI-8226 leukemia
  TGI: 22 µM
RXF 393 renal
  TGI: 29.4 µM
SF-268 CNS
  TGI: 14.1 µM
SF-295 CNS
  TGI: 2.27 µM
SF-539 CNS
  TGI: 12.7 µM
SK-MEL-28 melanoma
  TGI: 68.2 µM
SK-OV-3 ovarian
  TGI: 38.3 µM
SN12C renal
  TGI: 16.5 µM
SNB-19 CNS
  TGI: > 100 µM
SR leukemia
  TGI: 16.9 µM
SW-620 colon
  TGI: > 100 µM
T-47D breast
  TGI: > 100 µM
TK-10 renal
  TGI: > 82.3 µM
U251 CNS
  TGI: > 70.5 µM
UACC-257 melanoma
  TGI: 67.5 µM
UACC-62 melanoma
  TGI: 25.4 µM
UO-31 renal
  TGI: 4 µM

## Cc1cc2ncn(C3CCCO3)c2cc1C (configuration not stated)
786-0 renal
  TGI: > 100 µM
A549 NSCLC
  TGI: > 100 µM
ACHN renal
  TGI: > 100 µM
BT-549 breast
  TGI: > 100 µM
CAKI-1 renal
  TGI: > 100 µM
CCRF-CEM leukemia
  TGI: > 100 µM
COLO 205 colon
  TGI: > 100 µM
DU-145 prostate
  TGI: > 100 µM
EKVX NSCLC
  TGI: > 100 µM
HCC-2998 colon
  TGI: > 100 µM
HCT-116 colon
  TGI: > 100 µM
HCT-15 colon
  TGI: > 100 µM
HL-60(TB) leukemia
  TGI: > 100 µM
HOP-62 NSCLC
  TGI: > 100 µM
HOP-92 NSCLC
  TGI: > 100 µM
HS 578T breast
  TGI: > 100 µM
HT29 colon
  TGI: > 100 µM
IGROV1 ovarian
  TGI: > 100 µM
K-562 leukemia
  TGI: > 100 µM
KM12 colon
  TGI: > 100 µM
LOX IMVI melanoma
  TGI: > 100 µM
M14 melanoma
  TGI: > 100 µM
MALME-3M melanoma
  TGI: > 100 µM
MCF7 breast
  TGI: > 100 µM
MDA-MB-231 breast
  TGI: > 100 µM
MDA-MB-435
  TGI: > 100 µM
MDA-N
  TGI: > 100 µM
MOLT-4 leukemia
  TGI: > 100 µM
NCI-H226 lung
  TGI: > 100 µM
NCI-H23 lung
  TGI: > 100 µM
NCI-H522 lung
  TGI: > 100 µM
NCI/ADR-RES ovarian
  TGI: > 100 µM
OVCAR-3 ovarian
  TGI: > 100 µM
OVCAR-4 ovarian
  TGI: > 100 µM
OVCAR-5 ovarian
  TGI: > 100 µM
OVCAR-8 ovarian
  TGI: > 100 µM
PC-3 prostate
  TGI: > 100 µM
RPMI-8226 leukemia
  TGI: > 100 µM
RXF 393 renal
  TGI: > 100 µM
SF-268 CNS
  TGI: > 100 µM
SF-295 CNS
  TGI: > 100 µM
SF-539 CNS
  TGI: > 100 µM
SK-MEL-2 melanoma
  TGI: > 100 µM
SK-MEL-28 melanoma
  TGI: > 100 µM
SK-MEL-5 melanoma
  TGI: > 100 µM
SK-OV-3 ovarian
  TGI: > 100 µM
SN12C renal
  TGI: > 100 µM
SNB-19 CNS
  TGI: > 100 µM
SNB-75 CNS
  TGI: > 100 µM
SR leukemia
  TGI: > 100 µM
SW-620 colon
  TGI: > 100 µM
T-47D breast
  TGI: > 100 µM
TK-10 renal
  TGI: > 100 µM
U251 CNS
  TGI: > 100 µM
UACC-257 melanoma
  TGI: > 100 µM
UACC-62 melanoma
  TGI: > 100 µM
UO-31 renal
  TGI: > 100 µM
